In the assay the test system is T1, CmLOX18.
T1 construct: ORF in pYES2.1 TOPO-TA, His-tagged (anti-His), expressed in Saccharomyces cerevisiae INVSc1, purified
Briefly: increase in A234, Michaelis-Menten plot. The settings on record: substrate 15-350 μM, pH and temperature of the kinetic runs not stated (optimum pH 4.5, 30 °C). The class given is biochemical, Cucumis melo.

The term Km denotes the concentration of substrate that gives half-maximal velocity. In the case of `CC/C=C\C/C=C\C/C=C\CCCCCCCC(=O)O` [Linolenic acid], the Km (linolenic acid isomer not given, alpha assumed) is 40.7 ± 2.65 µM.

Consider `CCCCC/C=C\C/C=C\CCCCCCCC(=O)O` [Linoleic acid], for which the Km was determined as 127 ± 18.6 µM.

For the origin of these results see PMC5460189, “Melon13-lipoxygenase CmLOX18 may be involved in C6 volatiles biosynthesis in fruit” (Scientific Reports, 2017).
